{
  "source": "patent US5489675A",
  "about": "“Disaccharide sialidase substrates and inhibitors” (priority 1993, dated 1996)",
  "key": {"[1]": {"system": "Clostridium perfringens neuraminidase", "format": "biochemical", "conditions": "for rate of hydrolysis (time course): C. P. neuraminidase, 0.75 mM sialoside, 0-120 min, FIGS. 1 and 3 panel B; for rate of hydrolysis (time course) / Vmax: 37° C.; for Vmax: C. perfringens neuraminidase, sialoside as substrate, 20 min, Lineweaver-Burk; for Km: read-out: Michaelis Constant Km"}, "[2]": {"molecular_target": "Vibrio cholerae neuraminidase (Vibrio cholerae serotype O1, UniProt P0C6E9)", "sequence (P0C6E9 25-781)": "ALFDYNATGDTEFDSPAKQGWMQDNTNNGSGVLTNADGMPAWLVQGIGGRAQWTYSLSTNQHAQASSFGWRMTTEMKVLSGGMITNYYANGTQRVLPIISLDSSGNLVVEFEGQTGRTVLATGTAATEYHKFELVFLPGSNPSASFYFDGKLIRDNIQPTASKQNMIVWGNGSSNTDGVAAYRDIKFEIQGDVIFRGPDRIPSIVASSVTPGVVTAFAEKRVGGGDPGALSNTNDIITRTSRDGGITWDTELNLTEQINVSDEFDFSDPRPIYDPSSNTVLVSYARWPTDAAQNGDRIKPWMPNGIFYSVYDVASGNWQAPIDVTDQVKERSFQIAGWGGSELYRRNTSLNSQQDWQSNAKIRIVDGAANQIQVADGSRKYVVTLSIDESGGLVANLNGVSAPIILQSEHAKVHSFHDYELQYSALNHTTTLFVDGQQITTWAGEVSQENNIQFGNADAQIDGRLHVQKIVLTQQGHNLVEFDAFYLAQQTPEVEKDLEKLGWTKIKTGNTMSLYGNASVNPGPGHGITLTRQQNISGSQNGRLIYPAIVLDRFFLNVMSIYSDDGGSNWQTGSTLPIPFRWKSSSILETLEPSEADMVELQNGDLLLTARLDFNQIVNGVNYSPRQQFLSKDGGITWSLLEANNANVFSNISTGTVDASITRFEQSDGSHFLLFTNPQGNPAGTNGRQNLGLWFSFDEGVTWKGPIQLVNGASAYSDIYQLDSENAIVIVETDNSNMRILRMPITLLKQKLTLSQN", "format": "biochemical", "conditions": "for rate of hydrolysis (time course): 0.75 mM sialoside, 37° C., 0-120 min, FIGS. 1 and 3 panel C"}, "[3]": {"molecular_target": "T1, Arthrobacter ureafaciens neuraminidase (Paenarthrobacter ureafaciens, UniProt Q5W7Q2)", "T1 sequence (Q5W7Q2 39-990)": "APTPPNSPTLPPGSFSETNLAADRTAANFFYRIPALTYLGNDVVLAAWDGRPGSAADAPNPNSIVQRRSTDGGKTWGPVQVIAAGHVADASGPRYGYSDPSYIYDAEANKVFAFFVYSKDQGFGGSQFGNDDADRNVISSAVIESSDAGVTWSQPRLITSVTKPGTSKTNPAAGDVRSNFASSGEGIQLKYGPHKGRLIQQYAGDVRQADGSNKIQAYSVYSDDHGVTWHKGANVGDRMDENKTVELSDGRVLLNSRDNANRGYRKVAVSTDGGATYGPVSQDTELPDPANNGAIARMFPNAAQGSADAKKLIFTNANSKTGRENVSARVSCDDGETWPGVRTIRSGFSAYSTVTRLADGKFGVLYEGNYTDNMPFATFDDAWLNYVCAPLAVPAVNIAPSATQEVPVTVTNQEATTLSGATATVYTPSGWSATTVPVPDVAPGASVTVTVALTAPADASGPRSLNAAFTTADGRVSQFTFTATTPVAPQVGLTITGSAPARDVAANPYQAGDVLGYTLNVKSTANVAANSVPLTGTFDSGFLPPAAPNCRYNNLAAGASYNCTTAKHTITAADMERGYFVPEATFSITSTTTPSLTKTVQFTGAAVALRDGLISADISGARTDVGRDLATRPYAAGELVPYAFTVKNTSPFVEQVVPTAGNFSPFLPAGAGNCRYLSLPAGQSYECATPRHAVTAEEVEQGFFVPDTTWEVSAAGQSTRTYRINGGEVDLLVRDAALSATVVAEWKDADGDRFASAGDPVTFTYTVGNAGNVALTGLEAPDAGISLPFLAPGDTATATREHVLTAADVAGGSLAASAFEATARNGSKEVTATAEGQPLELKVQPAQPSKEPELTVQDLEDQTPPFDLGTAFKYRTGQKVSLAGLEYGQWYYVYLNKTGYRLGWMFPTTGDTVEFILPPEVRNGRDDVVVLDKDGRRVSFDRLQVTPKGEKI", "experiment": "colorimetric neuraminidase assay (sialoside hydrolysis), A. ureafaciens", "format": "biochemical", "conditions": "37° C.; for rate of hydrolysis (time course): A. U. neuraminidase, 0.75 mM sialoside, 0-120 min, FIGS. 1 and 3 panel A; for Vmax: A. ureafaciens neuraminidase, sialoside as substrate, 20 min, Lineweaver-Burk"}, "C. P. neuraminidase": {"molecular_target": "C. P. neuraminidase", "format": "biochemical, Clostridium perfringens", "conditions": "substrate 25, Dixon plots, 37° C."}},
  "note": "pKi: −log10 of the molar value. Counter-ions that a name gives are not always drawn.",
  "data": [
    {"smiles": "CC(=O)N[C@H]1[C@H]([C@H](O)[C@H](O)CO)O[C@@](O[C@@H](C)[C@H]2O[C@@H]3OC(C)(C)O[C@@H]3[C@H]3OC(C)(C)O[C@H]32)(C(=O)O)C[C@@H]1O", "note": "[Compound 19b, Sodium salt of 5-acetamido-3,5-dideoxy-D-glycero-D-galacto-nonulopyranosylonic acid (2-6)-1,2;3,4-di-O-isopropylidene-7-deoxy-α-D-glycero-D-galactoheptopyranose]", "values": [
      {"measurement": "rate of hydrolysis (time course)", "setting": "[1]", "value": "inactive"},
      {"measurement": "rate of hydrolysis (time course)", "setting": "[2]", "value": "inactive"}
    ]},
    {"smiles": "CC(=O)N[C@H]1[C@H]([C@H](O)[C@H](O)CO)O[C@@](OC[C@H]2O[C@@H]3OC(C)(C)O[C@@H]3[C@H]3OC(C)(C)O[C@H]32)(C(=O)O)C[C@@H]1O", "note": "[Compound 23b, reference compound]", "values": [
      {"measurement": "rate of hydrolysis (time course)", "setting": "[3]", "value": "more efficiently hydrolyzed"},
      {"measurement": "Vmax", "setting": "[3]", "value": 0.73, "unit": "O.D./mU"},
      {"measurement": "rate of hydrolysis (time course)", "setting": "[1]", "value": "more efficiently hydrolyzed"},
      {"measurement": "Vmax", "setting": "[1]", "value": 1.70, "unit": "O.D./mU"},
      {"measurement": "Km", "setting": "[1]", "value": 1440, "unit": "µM"},
      {"measurement": "Vmax", "setting": "[2]", "value": 4.5, "unit": "O.D./mU"},
      {"measurement": "rate of hydrolysis (time course)", "setting": "[2]", "value": "more efficiently hydrolyzed"}
    ]},
    {"smiles": "CC(=O)NC1C(O)CC(OCC2OC(OCC[Si](C)(C)C)C(O)C(O)C2O)(C(=O)O)OC1C(O)C(O)CO", "note": "(centres unmarked) [Compound 23a, αDNeuAc (2-6) βDGal-OCH2 CH2 Si (CH3)3, reference compound]", "values": [
      {"measurement": "rate of hydrolysis (time course)", "setting": "[3]", "value": "efficiently hydrolyzed"},
      {"measurement": "Vmax", "setting": "[3]", "value": 0.7, "unit": "O.D./mU"},
      {"measurement": "rate of hydrolysis (time course)", "setting": "[1]", "value": "faster than the tg sialoside 16a"},
      {"measurement": "Vmax", "setting": "[1]", "value": 0.88, "unit": "O.D./mU"},
      {"measurement": "Km", "setting": "[1]", "value": 650, "unit": "µM"},
      {"measurement": "Vmax", "setting": "[2]", "value": 2.2, "unit": "O.D./mU"},
      {"measurement": "rate of hydrolysis (time course)", "setting": "[2]", "value": "most preferred substrate"}
    ]},
    {"smiles": "CC(=O)NC1C(O)CC(SC(C)C2OC(O)C(O)C(O)C2O)(C(=O)O)OC1C(O)C(O)CO", "note": "[Compound 22a, Sodium salt of 5-acetamido-3,5-dideoxy-D-glycero-D-galacto-nonulopyranosylonic acid (2-S-6) -7-deoxy-D-glycero-D-galactoheptopyranose]", "values": [
      {"measurement": "pKi", "setting": "C. P. neuraminidase", "value": 3.00}
    ]},
    {"smiles": "CC(=O)N[C@H]1[C@H]([C@H](O)[C@H](O)CO)O[C@@](O[C@H](C)[C@H]2O[C@@H](OCC[Si](C)(C)C)[C@H](O)[C@@H](O)[C@H]2O)(C(=O)O)C[C@@H]1O", "note": "[Compound 16a, Sodium salt of 5-acetamido-3,5-dideoxy-D-glycero-D-galacto-nonulopyranosylonate(2-6)-7-deoxy-β-D-glycero-D-galactoheptopyranosyl-OCH2 CH2 Si (CH3)3]", "values": [
      {"measurement": "rate of hydrolysis (time course)", "setting": "[3]", "value": "efficiently hydrolyzed"},
      {"measurement": "Vmax", "setting": "[3]", "value": 0.91, "unit": "O.D./mU"},
      {"measurement": "Vmax", "setting": "[1]", "value": 0.90, "unit": "O.D./mU"},
      {"measurement": "Km", "setting": "[1]", "value": 2150, "unit": "µM"},
      {"measurement": "Vmax", "setting": "[2]", "value": 1.42, "unit": "O.D./mU"},
      {"measurement": "rate of hydrolysis (time course)", "setting": "[2]", "value": "preferentially hydrolyzed"}
    ]},
    {"smiles": "CC(=O)N[C@H]1[C@H]([C@H](O)[C@H](O)CO)O[C@@](O[C@@H](C)[C@H]2O[C@@H](OCC[Si](C)(C)C)[C@H](O)[C@@H](O)[C@H]2O)(C(=O)O)C[C@@H]1O", "note": "[Compound 16b, Sodium salt of 5-acetamido-3,5-dideoxy-D-glycero-D-galacto-nonulopyranosylonate(2-6)-7-deoxy-α-L-glycero-D-galactoheptopyranosyl-OCH2 CH2 Si (CH3)3]", "values": [
      {"measurement": "rate of hydrolysis (time course)", "setting": "[3]", "value": "little hydrolysis"},
      {"measurement": "Vmax", "setting": "[3]", "value": 0.05, "unit": "O.D./mU"},
      {"measurement": "rate of hydrolysis (time course)", "setting": "[1]", "value": "hydrolyzed very slowly"},
      {"measurement": "Vmax", "setting": "[1]", "value": 0.22, "unit": "O.D./mU"},
      {"measurement": "Km", "setting": "[1]", "value": 3200, "unit": "µM"},
      {"measurement": "Vmax", "setting": "[2]", "value": 0.37, "unit": "O.D./mU"}
    ]},
    {"smiles": "CC(=O)N[C@H]1[C@H]([C@H](O)[C@H](O)CO)O[C@@](O[C@H](C)[C@H]2O[C@@H]3OC(C)(C)O[C@@H]3[C@H]3OC(C)(C)O[C@H]32)(C(=O)O)C[C@@H]1O", "note": "[Compound 19a, Sodium salt of 5-acetamido-3,5-dideoxy-D-glycero-D-galacto-nonulopyranosylonic acid (2-6)-1,2;3,4-di-O-isopropylidene-7-deoxy-α-D-glycero-D-galactoheptopyranose]", "values": [
      {"measurement": "rate of hydrolysis (time course)", "setting": "[3]", "value": "no effect on the hydrolysis"},
      {"measurement": "rate of hydrolysis (time course)", "setting": "[1]", "value": "detrimental effect"},
      {"measurement": "rate of hydrolysis (time course)", "setting": "[2]", "value": "no effect on the hydrolysis"}
    ]}
  ]
}
